According to publication PMC4914680 (Antimicrobial Agents and Chemotherapy, 2016):
Like-named read-outs stand apart in the source and are kept apart here.

Legend:
HIV-1 MN = test: Multiple-cycle assay, laboratory strains; type: cell-based; conditions: Human immunodeficiency virus 1, CXCR4, MT-2
[1] = tested on: HIV-1 subtype G clinical isolates; test: Drug susceptibility assay using clinical isolates in PBMCs; conditions: Human immunodeficiency virus 1, PBMC
[2] = tested on: HIV-1 subtype B clinical isolates; test: as above
[3] = tested on: subtype C gag/pr recombinant viruses; test: Multiple-cycle Gag/Pr phenotyping assay; type: cell-based, HIV-1
[4] = tested on: HIV-LAI envelope-pseudotyped RepRlucP373SΔenv virus; test: Two-stage single-cycle pseudotype assay (HIV-1 entry assay); type: cell-based
HIV-2 CBL-23 = test: Multiple-cycle assay, laboratory strains; type: cell-based; conditions: HIV-2 CBL-23, MT-2
[5] = tested on: HIV-1 subtype CRF01_AE clinical isolates; test: Drug susceptibility assay using clinical isolates in PBMCs; conditions: Human immunodeficiency virus 1, PBMC
HIV-2 ROD = test: Multiple-cycle assay, laboratory strains; type: cell-based; conditions: Human immunodeficiency virus 2, MT-2
[6] = biological target: HIV-1 reverse transcriptase (Human immunodeficiency virus type 1 group M subtype B, UniProt P03366); test: In vitro HIV-1 reverse transcriptase assay; type: biochemical
[7] = tested on: MJ4, a subtype C molecular clone; test: RT activity in PBMCs; conditions: Human immunodeficiency virus 1, PBMC
HIV-1 gp160 = biological target: T1, HIV-1 gp160 (Human immunodeficiency virus type 1 group M subtype B, UniProt P04578); test: HIV-1 cell fusion assay; type: cell-based
T1 construct: expressed in transfected cells; host or cells: NL-TOE donor cells (target cells: HeLa C14)

SMILES: C=C(C)[C@@H]1CC[C@]2(NCCN3CCS(=O)(=O)CC3)CC[C@]3(C)[C@H](CC[C@@H]4[C@@]5(C)CC=C(c6ccc(C(=O)O)cc6)C(C)(C)[C@@H]5CC[C@]43C)[C@@H]12 [BMS-955176]
- EC50 (HIV-1 MN): 0.9 ± 0.6 nM
- EC50 ([1]; read-out: Mean EC50 ± SD): 11 ± 4 nM
- EC50 ([1]; read-out: Median EC50): 10 nM
- EC50 ([1]; read-out: Range EC50): 8 to 15 nM
- EC50 ([2]; Human immunodeficiency virus 1, PBMC, read-out: Mean EC50 ± SD, PBMCs, B (96% of Gag diversity), 22 isolates): 24 ± 24 nM
- EC50 ([2]; Human immunodeficiency virus 1, PBMC, read-out: Mean EC50 ± SD, PBMCs, B (all), 26 isolates): 67 ± 172 nM
- EC50 ([2]; Human immunodeficiency virus 1, PBMC, read-out: Median EC50, PBMCs, B (96% of Gag diversity), 22 isolates): 17 nM
- EC50 ([2]; Human immunodeficiency virus 1, PBMC, read-out: Median EC50, PBMCs, B (all), 26 isolates): 21 nM
- EC50 ([2]; Human immunodeficiency virus 1, PBMC, read-out: Range EC50, PBMCs, B (96% of Gag diversity), 22 isolates): 1 to 110 nM
- EC50 ([2]; Human immunodeficiency virus 1, PBMC, read-out: Range EC50, PBMCs, B (all), 26 isolates): 1 to 858 nM
- EC50 ([2]; Human immunodeficiency virus 1, PBMC, read-out: mean EC50, PBMCs, three less susceptible subtype B variants with Gag V370A/ΔT371): 123 ± 162 nM
- EC50 ([2]; PBMC): 860 nM
- EC50 ([3]; Human immunodeficiency virus 1, read-out: EC50 range): 2.1 to 45 nM
- EC50 ([3]; Human immunodeficiency virus 1, read-out: mean EC50): 10.9 ± 9.1 nM
- EC50 ([3]; Human immunodeficiency virus 1, read-out: median EC50): 8.8 nM
- inhibition of luciferase, compound added at stage 1 (virus production) [4]: inhibiting luciferase production only when added in the first stage
- inhibition of luciferase, compound added at stage 2 (infection) [4]: inhibiting luciferase production only when added in the first stage
- EC50 (HIV-2 CBL-23): completely resistant
- EC50 (HIV-2 CBL-23; Human immunodeficiency virus 2, read-out: EC50): > 1200 nM
- EC50 ([5]; read-out: Mean EC50 ± SD, PBMCs, AE, 7 isolates): 77 ± 46 nM
- EC50 ([5]; read-out: Range EC50, PBMCs, AE, 7 isolates): 10 to 139 nM
- EC50 (HIV-2 ROD): 15 ± 1.2 nM
- IC50 [6]: > 50000 nM
- EC50 [7]: 3 nM
- EC50 (HIV-1 gp160): > 2000 nM
